Experimental data published in patent US12324927B2, “Methods and systems for photodynamic therapy calculations” (THE TRUSTEES OF THE UNIVERSITY OF PENNSYLVANIA, priority 2018, dated 2025).
Values joined by “and” are separate entries in the source; they are usually repeats but may differ in a detail not shown here. Equal entries are not always repeated.

System: radiation-induced fibrosarcoma (RIF) tumors
Experiment: Photofrin-mediated PDT of RIF tumors: explicit dosimetry and tumor regrowth (cure index)
Format: in vivo, mice
Conditions: for Photofrin post: in tumor after PDT; for Photofrin post / Photofrin pre / [ROS]rx, mea / [ROS]rxcal / CI (cure index, 1−k/kctr): per mouse; for Photofrin pre: in tumor before PDT, 5 mg/kg i.v., 24 h, 5 mg/kg; for [ROS]rx, mea / [ROS]rxcal: 3 mm; for [ROS]rx, mea: measured [^3O2](t); for [ROS]rxcal: model-calculated [^3O2]; for CI (cure index, 1−k/kctr): tumor growth up to 14 days
Procedure: Radiation-induced fibrosarcomas (RIF) cells were cultured and injected in the right shoulder regions of 6-8 weeks old female C3H mice (NCI-Frederick, Frederick, MD). 30 μl were injected at a concentration of 1×10^7 cells/ml, as described previously.^8-11 Animals were under the care of the University of Pennsylvania Laboratory Animal Resources. All studies were approved by the University of Pennsylvania Institutional Animal Care and Use Committee. The fur of the treatment region was clipped prior to cell inoculation, and the treatment area was depilated with Nair (Church & Dwight Co., Inc., Ewing, NJ) at least 24 hours prior to measurements and treatment. Tumors were treated when they were 3˜5 mm in diameter. Mice were given a chlorophyll-free (alfalfa-free) rodent diet (Harlan laboratories Inc., Indianapolis, IN) at least 10 days prior to treatment to eliminate the fluorescence signal from chlorophyll-breakdown products, which have a similar range to the photosensitizer spectra obtained in this study. The photosensitizer fluorescence was used to determine the in vivo concentrations in this study, using methods described previously.^7-9
Treatment delivery was done using an optical fiber with a microlens attachment coupled to a diode laser with the appropriate wavelength for each photosensitizer. A 630 nm laser (Biolitec, Inc., East Longmeadow, MA, USA) was used for Photofrin after a 18˜24 hours drug-light interval. The in-air fluence rate (ϕair) is defined as the calculated irradiance determined by the laser power divided by the treatment area (1 cm diameter spot size). The in-air fluence was calculated by multiplying the in-air fluence rate by the treatment time. RIF tumor-bearing mice with no photosensitizer and no light excitation were used as controls (n=5).
Photofrin (Pinnacle Biologics, Chicago, Illinois) at a dosage of 5 mg/kg was injected through the mouse tail vein as described previously.^12,13 At a 24-h drug-light interval, superficial irradiation of the tumor was performed with a 630-nm laser (Biolitec AG., A-1030, Vienna). A microlens fiber was coupled to the laser to irradiate the tumor uniformly. Animals were assigned to four light dose groups, and each group was comprised of 2 to 3 subgroups with different ϕ. There were a total of 5 treatment groups: 50 J/cm^2 at 150 mW/cm^2, 250 J/cm^2 at 75 mW/cm^2, 135 J/cm^2 at 75 mW/cm^2, 75 J/cm^2 at 75 mW/cm^2, and 100 J/cm^2 at 150 mW/cm^2. Tumor-bearing mice that received neither light irradiation nor Photofrin were used as controls.
Following the drug-light interval of 18˜24 hours, measurements of light fluence rate, photosensitizer concentration and [O2] were performed. Photofrin fluorescence spectra was obtained using a custom-made multi-fiber contact probe before and after PDT.^14 The probe is connected to a 405 nm laser (Power Technology Inc., Little Rock, AR, USA) for the fluorescence excitation of Photofrin and a multichannel CCD spectrograph (InSpectrum, Princeton Instruments, Trenton, NJ, USA) for the collection of the spectra. The in vivo photosensitizer concentration was obtained by comparing the in vivo Photofrin spectra with those of phantoms with known photosensitizer concentrations. The attenuation of the fluorescence signal due to the light absorption and scattering by tissues was corrected by applying an empirical correction factor described elsewhere. The accuracy of in vivo measurements was validated by ex vivo measurements in separate mice.^15.16
The in vivo tissue oxygen partial pressure pO2 was measured during PDT treatment using a phosphorescence-based ^3O2 probe (OxyLite Pro, Oxford Optronix, Oxford, United Kingdom). A bare-fiber-type probe (NX-BF/O/E, Oxford Optronix, Oxford, United Kingdom) was placed inside the tumor at a 3 mm depth from the treatment surface. […]

Substance: Photofrin
- Photofrin post (75.00 mW/cm2 for 1500.00 s): 2.80 µM and 3.70 µM and 3.01 µM
- Photofrin post (75.00 mW/cm2 for 1800.00 s): 4.90 µM and 3.35 µM and 3.00 µM and 3.50 µM
- Photofrin post (75.00 mW/cm2 for 3333.00 s): 3.02 µM and 2.44 µM and 2.48 µM and 2.20 µM
- Photofrin post (150.00 mW/cm2 for 333.00 s): 3.07 µM and 1.19 µM and 2.80 µM and 2.30 µM
- Photofrin post (150.00 mW/cm2 for 666.00 s): 2.50 µM and 3.54 µM and 4.88 µM and 3.49 µM
- Photofrin pre (75.00 mW/cm2 for 1500.00 s): 6.50 µM and 6.70 µM and 6.00 µM
- Photofrin pre (75.00 mW/cm2 for 1800.00 s): 6.90 µM and 6.80 µM and 5.20 µM and 5.67 µM
- Photofrin pre (75.00 mW/cm2 for 3333.00 s): 6.47 µM and 4.20 µM and 4.54 µM and 4.50 µM
- Photofrin pre (150.00 mW/cm2 for 333.00 s): 6.80 µM and 3.07 µM and 5.84 µM and 5.10 µM
- Photofrin pre (150.00 mW/cm2 for 666.00 s): 6.40 µM and 7.20 µM and 7.84 µM and 6.79 µM
- [ROS]rx, mea (75.00 mW/cm2 for 1500.00 s): 0.82 mM and 0.73 mM and 0.65 mM
- [ROS]rx, mea (75.00 mW/cm2 for 1800.00 s): 1.13 mM and 0.96 mM and 1.00 mM and 1.10 mM
- [ROS]rx, mea (75.00 mW/cm2 for 3333.00 s): 1.40 mM and 1.41 mM and 1.39 mM and 1.20 mM
- [ROS]rx, mea (150.00 mW/cm2 for 333.00 s): 0.27 mM (2×) and 0.21 mM and 0.38 mM
- [ROS]rx, mea (150.00 mW/cm2 for 666.00 s): 0.77 mM and 0.79 mM and 0.88 mM and 0.78 mM
- [ROS]rxcal (75.00 mW/cm2 for 1500.00 s): 0.89 mM and 0.93 mM and 0.87 mM
- [ROS]rxcal (75.00 mW/cm2 for 1800.00 s): 1.39 mM and 1.24 mM and 1.07 mM and 1.09 mM
- [ROS]rxcal (75.00 mW/cm2 for 3333.00 s): 2.33 mM and 1.73 mM and 1.89 mM and 1.87 mM
- [ROS]rxcal (150.00 mW/cm2 for 333.00 s): 0.29 mM and 0.235 mM and 0.39 mM and 0.32 mM
- [ROS]rxcal (150.00 mW/cm2 for 666.00 s): 0.69 mM and 0.81 mM (2×) and 0.8 mM
- CI (cure index, 1−k/kctr) (75.00 mW/cm2 for 1500.00 s): 0.20 and 0.22 and 0.13
- CI (cure index, 1−k/kctr) (75.00 mW/cm2 for 1800.00 s): 1.00 and 0.56 and 0.64 and 0.82
- CI (cure index, 1−k/kctr) (75.00 mW/cm2 for 3333.00 s): 1.00
- CI (cure index, 1−k/kctr) (150.00 mW/cm2 for 333.00 s): 0.03 and 0.00 and 0.01 and 0.06
- CI (cure index, 1−k/kctr) (150.00 mW/cm2 for 666.00 s): 0.15 and 0.25 and 0.42 and 0.27
- PDT dose threshold (this study): 439 mM J/cm^2
